Experimental data taken from patent US12421199B2, “Sphingosine 1 phosphate receptor modulators” (RECEPTOS LLC, priority 2020, dated 2025).

Tests used:
[1] = target: T1, S1P1 (Homo sapiens, UniProt P21453); assay: [35S]-GTPγS binding assay, S1P1; format: biochemical; details: CHO-S1P receptor membranes; for Emax: control S1P, read-out: S1P1 % Efficacy
T1 construct: expressed in transfected cells; host or cells: CHO cell membranes
Description: (§1) Binding assays for [35S]-GTPTS were performed in 96-well non-binding surface plates with a final volume of 200 μL. The test compounds were serial diluted in DMSO and added to assay plates using a Tecan D300E digital printer with a total volume of 0.4 μL. The control sphingosine-1-phosphate (S1P) was prepared separately by preparing a 400 μM stock solution from a 100 nmol pellet of S1P in 10 mM Na2CO3 with 2% […]. The serial dilution of S1P was done using complete assay buffer (20 mM HEPES, 10 mM MgCl2, 100 mM NaCl, 1 mM EDTA, 0.1% fatty acid free bovine serum albumin [BSA], and 30 μg/mL saponin, pH7.4) and transferred to wells already containing 0.4 μL DMSO. All the wells were then loaded to a total volume of 40 μL of complete assay buffer, except the non-specific binding (NSB) wells. For NSB wells, 40 µL/well of 50 μM GTPTS (Sigma Aldrich, cat #G8634, St. Louis, MO) was added to wells containing 0.4 μL of DMSO. The assay was started by the addition of 120 μL/well of CHO-S1P receptor membrane solution containing 40 μg/mL of membrane protein, 16.67 μM guanosine diphosphate (GDP; Sigma Aldrich, cat #G7127, St. Louis, MO), and 2.5 mg/mL of WGA PVT SPA beads in complete buffer. Assay plates were then sealed and incubated at room temperature with gentle agitation for 30 minutes. Next, 40 μL/well of 1 nM of [^35S]-GTPTS (PerkinElmer, cat #NEG030X250UC, Waltham, MA) in basic assay buffer (20 mM HEPES, 10 mM MgCl2, 100 mM NaCl, and 1 mM EDTA, pH7.4) was added to the assay plates to yield a final concentration of […] and the plates were further incubated for 40 minutes at room temperature with gentle agitation. The assay was terminated by centrifugation of the plates at 1000 rpm for 3 minutes using an Eppendorf 5810R centrifuge (Eppendorf, Hamburg, Germany) and G protein bound radioactivity was quantitated using a MicroBeta2 microplate scintillation counter (PerkinElmer, Waltham, MA).

[2] = target: T2, S1P5 (Homo sapiens, UniProt Q9H228); assay: [35S]-GTPγS binding assay, S1P5; format: biochemical; details: CHO-S1P receptor membranes; for Emax: control S1P, read-out: S1P5 % Efficacy
T2 construct: expressed in transfected cells; host or cells: CHO cell membranes
T2 sequence (Q9H228 whole entry, species assumed): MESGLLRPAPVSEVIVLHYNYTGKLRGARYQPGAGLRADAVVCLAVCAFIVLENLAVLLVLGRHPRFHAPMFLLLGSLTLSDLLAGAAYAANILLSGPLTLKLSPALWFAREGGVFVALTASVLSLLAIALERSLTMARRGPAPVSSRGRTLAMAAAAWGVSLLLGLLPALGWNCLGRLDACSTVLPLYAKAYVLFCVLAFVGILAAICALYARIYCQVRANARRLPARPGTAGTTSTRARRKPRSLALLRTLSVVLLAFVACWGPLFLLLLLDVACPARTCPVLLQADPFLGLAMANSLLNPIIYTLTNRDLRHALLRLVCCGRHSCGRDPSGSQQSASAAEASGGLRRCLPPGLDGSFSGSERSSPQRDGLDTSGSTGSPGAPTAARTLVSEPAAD
Description: as §1

T1 sequence (P21453 whole entry, species assumed): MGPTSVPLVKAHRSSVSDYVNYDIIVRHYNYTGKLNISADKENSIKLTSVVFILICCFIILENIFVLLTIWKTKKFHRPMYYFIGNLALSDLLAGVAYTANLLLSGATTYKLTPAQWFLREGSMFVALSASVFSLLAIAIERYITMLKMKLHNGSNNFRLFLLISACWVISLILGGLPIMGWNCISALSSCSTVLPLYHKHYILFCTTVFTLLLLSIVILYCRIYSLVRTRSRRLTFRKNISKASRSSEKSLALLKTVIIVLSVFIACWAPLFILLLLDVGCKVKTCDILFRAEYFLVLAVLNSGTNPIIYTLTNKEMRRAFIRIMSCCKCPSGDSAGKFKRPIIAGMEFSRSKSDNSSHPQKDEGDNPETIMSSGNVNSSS

EC50 [1] [nM]	Emax [1] [%]	EC50 [2] [nM]	Emax [2] [%]	Compound
14	97	147	80	CCC1(O)CCc2c(-c3noc(-c4ccc(OC(C)C)c(C#N)c4)n3)cccc21 (centres unmarked) [compound 3, 5-(3-(1-ethyl-1-hydroxy-2,3-dihydro-1H-inden-4-yl)-1,2,4-oxadiazol-5-yl)-2-isopropoxybenzonitrile]
7	97	77	74	CC(C)Oc1ccc(-c2nc(-c3cccc4c3CCC4(O)C(C)C)no2)cc1C#N (centres unmarked) [compound 4, 5-(3-(1-hydroxy-1-isopropyl-2,3-dihydro-1H-inden-4-yl)-1,2,4-oxadiazol-5-yl)-2-isopropoxybenzonitrile]
